Experimental data as given in ChEMBL document CHEMBL1201862, “PubChem BioAssay data set” (2004).
Activity calls are given as the source filed them.

Columns and labels:
[1] = tested on: HeLa; experiment: ATP-based viability loss in HeLa cells – cell-based, CellTiter-Glo luminescence, cherry-pick samples, cytotoxicity control for MITF activator project, dose response (AID 540259); format: functional; settings: Homo sapiens
[2] = molecular target: T1, Oxysterols receptor LXR-beta (Homo sapiens, UniProt P55055); format: functional, cell-based;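 further: agonist activity at LXR measured by a cell-based luminescence readout across a dose range, run as a counterscreen for daf-12 agonists; HEK293 cells with Gal4-LXR fusion and GAL4-driven luciferase reporter; potency for activation of Gal4-LXR reporter so compounds are agonists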
T1 sequence (P55055 whole entry): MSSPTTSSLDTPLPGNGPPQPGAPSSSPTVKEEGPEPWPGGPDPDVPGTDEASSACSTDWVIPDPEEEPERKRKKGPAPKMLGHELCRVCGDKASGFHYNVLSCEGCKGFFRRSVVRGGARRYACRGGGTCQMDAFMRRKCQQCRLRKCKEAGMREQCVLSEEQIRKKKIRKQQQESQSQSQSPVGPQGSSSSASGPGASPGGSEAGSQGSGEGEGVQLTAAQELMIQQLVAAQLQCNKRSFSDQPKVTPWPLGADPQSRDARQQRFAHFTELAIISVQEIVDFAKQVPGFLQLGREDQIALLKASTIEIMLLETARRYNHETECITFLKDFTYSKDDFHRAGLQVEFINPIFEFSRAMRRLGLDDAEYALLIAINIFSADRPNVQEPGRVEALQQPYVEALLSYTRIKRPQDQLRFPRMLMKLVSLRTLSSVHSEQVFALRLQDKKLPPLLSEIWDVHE

[3] = molecular target: Beta-galactosidase (Escherichia coli, UniProt Q8VNN2); experiment: PubChem AID 485352; format: functional
Sequence of Beta-galactosidase (Q8VNN2 whole entry): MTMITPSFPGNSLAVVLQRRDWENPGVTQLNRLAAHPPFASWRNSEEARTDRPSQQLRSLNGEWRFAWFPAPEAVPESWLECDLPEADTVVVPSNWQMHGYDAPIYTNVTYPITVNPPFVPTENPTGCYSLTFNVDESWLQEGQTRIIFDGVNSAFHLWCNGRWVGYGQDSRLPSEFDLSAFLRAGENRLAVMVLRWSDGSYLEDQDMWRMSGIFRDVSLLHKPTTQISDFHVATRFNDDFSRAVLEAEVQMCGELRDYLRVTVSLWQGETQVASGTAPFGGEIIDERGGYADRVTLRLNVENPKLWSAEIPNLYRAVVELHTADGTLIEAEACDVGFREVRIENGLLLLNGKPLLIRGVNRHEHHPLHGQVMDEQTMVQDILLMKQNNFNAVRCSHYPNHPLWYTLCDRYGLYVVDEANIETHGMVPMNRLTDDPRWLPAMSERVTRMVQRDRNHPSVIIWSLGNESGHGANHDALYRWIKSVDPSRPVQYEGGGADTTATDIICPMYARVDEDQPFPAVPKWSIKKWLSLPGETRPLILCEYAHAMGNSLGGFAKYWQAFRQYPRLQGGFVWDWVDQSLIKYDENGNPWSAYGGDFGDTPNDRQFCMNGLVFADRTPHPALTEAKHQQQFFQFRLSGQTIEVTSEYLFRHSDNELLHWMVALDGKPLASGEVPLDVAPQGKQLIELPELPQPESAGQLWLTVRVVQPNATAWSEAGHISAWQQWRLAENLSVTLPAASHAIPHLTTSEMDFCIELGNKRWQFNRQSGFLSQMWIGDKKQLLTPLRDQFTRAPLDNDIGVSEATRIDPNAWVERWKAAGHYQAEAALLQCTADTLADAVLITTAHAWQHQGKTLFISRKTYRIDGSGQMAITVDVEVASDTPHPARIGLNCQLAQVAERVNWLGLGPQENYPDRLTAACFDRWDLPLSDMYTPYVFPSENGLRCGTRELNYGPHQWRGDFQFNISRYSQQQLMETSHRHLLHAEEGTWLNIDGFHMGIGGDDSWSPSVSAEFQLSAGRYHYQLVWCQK

[4] = molecular target: T2, Type-1 angiotensin II receptor (Homo sapiens, UniProt P30556); experiment: antagonism of angiotensin II type 1 receptor – cell-based, uHTS hits, selectivity assay for APJ receptor antagonist project, dose response (AID 463214); format: functional;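 further: antagonist potency against angiotensin II stimulated AT1 response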
T2 sequence (P30556 whole entry): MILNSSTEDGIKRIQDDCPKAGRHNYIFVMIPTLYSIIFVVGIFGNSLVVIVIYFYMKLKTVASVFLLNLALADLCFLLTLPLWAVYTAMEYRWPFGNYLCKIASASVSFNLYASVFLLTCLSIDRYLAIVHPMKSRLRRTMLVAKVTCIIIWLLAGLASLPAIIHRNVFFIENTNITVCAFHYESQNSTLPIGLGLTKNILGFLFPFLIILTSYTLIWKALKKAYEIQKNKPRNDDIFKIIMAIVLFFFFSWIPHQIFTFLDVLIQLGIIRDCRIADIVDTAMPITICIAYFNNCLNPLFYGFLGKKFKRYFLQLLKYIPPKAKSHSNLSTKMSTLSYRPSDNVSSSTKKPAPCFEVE

[5] = molecular target: T3, Caspase-3 (Homo sapiens, UniProt P42574); format: functional;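 further: Dose-response selectivity test against caspase-3 for candidate inhibitors of sentrin-specific proteases (SENPs)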
T3 sequence (P42574 whole entry): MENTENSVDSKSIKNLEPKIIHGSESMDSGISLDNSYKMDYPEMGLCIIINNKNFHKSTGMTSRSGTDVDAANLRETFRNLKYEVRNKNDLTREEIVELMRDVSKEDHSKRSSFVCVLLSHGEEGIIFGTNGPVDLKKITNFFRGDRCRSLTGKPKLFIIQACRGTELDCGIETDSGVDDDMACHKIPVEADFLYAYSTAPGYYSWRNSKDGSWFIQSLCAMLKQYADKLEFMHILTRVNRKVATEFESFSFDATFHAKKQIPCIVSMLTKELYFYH

[6] = molecular target: T4, Sentrin-specific protease 7 (Homo sapiens, UniProt Q9BQF6); format: functional;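 further: Luminescence-based dose-response confirmation of ultra-high-throughput screening hits, measuring inhibition of SENP7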
T4 sequence (Q9BQF6 whole entry): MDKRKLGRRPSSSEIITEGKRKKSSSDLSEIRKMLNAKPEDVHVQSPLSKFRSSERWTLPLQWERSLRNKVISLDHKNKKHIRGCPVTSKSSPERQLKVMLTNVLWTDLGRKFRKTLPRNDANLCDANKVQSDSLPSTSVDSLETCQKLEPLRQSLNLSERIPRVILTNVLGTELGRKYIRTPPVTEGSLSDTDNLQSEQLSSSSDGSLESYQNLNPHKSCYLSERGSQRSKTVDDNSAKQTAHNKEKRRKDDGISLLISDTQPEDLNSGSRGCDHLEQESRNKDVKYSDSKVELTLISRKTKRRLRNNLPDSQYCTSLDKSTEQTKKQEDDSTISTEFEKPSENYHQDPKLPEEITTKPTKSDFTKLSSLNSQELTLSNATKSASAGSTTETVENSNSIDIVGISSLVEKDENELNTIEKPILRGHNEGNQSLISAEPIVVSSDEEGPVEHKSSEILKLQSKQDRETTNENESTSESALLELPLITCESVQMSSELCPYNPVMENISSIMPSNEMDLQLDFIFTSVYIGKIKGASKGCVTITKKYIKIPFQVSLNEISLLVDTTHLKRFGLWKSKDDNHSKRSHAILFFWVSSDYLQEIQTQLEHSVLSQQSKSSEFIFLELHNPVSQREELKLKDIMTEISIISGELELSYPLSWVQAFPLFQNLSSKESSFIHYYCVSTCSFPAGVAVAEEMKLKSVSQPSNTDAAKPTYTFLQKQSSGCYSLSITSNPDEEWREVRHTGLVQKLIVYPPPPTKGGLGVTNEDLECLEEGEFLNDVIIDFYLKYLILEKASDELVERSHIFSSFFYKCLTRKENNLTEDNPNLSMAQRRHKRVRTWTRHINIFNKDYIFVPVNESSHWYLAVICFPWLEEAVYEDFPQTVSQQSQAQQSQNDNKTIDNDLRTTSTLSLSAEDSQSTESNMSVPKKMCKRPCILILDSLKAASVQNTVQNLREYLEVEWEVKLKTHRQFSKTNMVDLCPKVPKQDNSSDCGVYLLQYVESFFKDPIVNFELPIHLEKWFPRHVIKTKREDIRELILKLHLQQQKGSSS

[7] = molecular target: T5, Sentrin-specific protease 8 (Homo sapiens, UniProt Q96LD8); format: functional;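 further: luminescence read-out of SENP8 inhibition, dose-response confirmation following an ultra-high-throughput screen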
T5 sequence (Q96LD8 whole entry): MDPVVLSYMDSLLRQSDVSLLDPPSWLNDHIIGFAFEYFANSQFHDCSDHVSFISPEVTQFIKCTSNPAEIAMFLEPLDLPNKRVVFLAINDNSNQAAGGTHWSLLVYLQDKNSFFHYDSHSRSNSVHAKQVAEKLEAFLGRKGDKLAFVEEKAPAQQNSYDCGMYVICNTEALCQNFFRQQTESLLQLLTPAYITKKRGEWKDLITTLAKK

[8] = molecular target: T6, Sentrin-specific protease 6 (Homo sapiens, UniProt Q9GZR1); format: functional;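 further: Luminescence-based dose-response confirmatory assay of SENP6 inhibition, following up an ultra-high-throughput screen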
T6 sequence (Q9GZR1 whole entry): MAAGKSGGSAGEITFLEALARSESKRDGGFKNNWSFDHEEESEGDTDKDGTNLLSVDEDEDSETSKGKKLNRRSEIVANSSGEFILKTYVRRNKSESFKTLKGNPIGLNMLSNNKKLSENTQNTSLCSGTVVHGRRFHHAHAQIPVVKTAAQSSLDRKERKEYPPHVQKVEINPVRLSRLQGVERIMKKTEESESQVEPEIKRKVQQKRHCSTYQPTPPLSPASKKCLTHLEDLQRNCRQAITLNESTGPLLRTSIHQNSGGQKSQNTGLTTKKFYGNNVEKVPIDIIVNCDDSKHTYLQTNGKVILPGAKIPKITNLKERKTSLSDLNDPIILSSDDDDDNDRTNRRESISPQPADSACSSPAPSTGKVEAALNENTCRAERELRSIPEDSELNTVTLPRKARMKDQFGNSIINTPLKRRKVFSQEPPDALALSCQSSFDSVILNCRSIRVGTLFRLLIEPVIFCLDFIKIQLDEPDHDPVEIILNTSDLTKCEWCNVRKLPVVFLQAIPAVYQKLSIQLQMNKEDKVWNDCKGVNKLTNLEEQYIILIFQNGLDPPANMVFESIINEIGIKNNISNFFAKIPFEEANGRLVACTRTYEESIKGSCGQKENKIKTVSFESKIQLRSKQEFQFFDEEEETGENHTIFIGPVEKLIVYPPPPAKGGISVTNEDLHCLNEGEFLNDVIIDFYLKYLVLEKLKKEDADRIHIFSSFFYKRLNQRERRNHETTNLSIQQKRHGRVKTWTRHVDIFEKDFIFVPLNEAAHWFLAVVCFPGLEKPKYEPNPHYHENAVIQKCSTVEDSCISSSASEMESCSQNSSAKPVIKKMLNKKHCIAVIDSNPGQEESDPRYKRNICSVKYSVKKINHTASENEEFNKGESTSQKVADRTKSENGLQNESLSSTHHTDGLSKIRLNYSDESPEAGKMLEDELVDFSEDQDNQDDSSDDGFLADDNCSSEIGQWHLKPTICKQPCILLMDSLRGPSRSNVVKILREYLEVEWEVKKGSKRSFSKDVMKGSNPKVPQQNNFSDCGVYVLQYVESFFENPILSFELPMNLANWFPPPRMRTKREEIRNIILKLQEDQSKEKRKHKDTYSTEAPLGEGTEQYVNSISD

[9] = microbe, parasite or virus in culture; format: functional; settings: Mycobacterium tuberculosis
[10] = molecular target: T7, Hepatocyte nuclear factor 4-alpha (Homo sapiens, UniProt P41235); format: functional, cell-based;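 further: biochemical luminescence-based dose-response counterscreen measuring inhibition of HNF4 dimerization, run alongside a screen for blockers of ABHD5–perilipin-5 interaction; split luciferase complementation of HNF4 fusion proteins in cell lysate measuring dimerization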
T7 sequence (P41235 whole entry): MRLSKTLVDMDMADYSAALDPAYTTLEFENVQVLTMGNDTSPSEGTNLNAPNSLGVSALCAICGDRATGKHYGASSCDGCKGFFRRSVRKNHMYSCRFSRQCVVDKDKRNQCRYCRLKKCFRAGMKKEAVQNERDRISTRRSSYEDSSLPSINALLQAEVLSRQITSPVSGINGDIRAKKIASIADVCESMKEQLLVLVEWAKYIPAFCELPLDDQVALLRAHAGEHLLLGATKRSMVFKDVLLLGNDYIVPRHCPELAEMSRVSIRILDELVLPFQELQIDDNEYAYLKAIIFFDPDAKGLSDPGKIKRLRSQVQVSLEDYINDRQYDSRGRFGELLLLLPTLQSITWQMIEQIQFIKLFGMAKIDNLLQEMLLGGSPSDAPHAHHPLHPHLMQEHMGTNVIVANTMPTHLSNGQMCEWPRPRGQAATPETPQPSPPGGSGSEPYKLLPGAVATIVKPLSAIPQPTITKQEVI

[11] = molecular target: Heat shock protein HSP 90-alpha (Homo sapiens, UniProt P07900); format: functional, organism-based
[12] = molecular target: T8, Heat shock factor protein 1 (Mus musculus, UniProt P38532); experiment: decrease of HSF1-responsive luciferase luminescence – cell-based, NIH3T3, dose retest, confirmation (AID 2382); format: functional;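 further: NIH3T3 fibroblasts with HSF1-driven luciferase reporter stressed by proteasome inhibitor MG132; luminescence from HSF1-driven luciferase expression after 8 hours of MG132 stress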
T8 sequence (P38532 whole entry): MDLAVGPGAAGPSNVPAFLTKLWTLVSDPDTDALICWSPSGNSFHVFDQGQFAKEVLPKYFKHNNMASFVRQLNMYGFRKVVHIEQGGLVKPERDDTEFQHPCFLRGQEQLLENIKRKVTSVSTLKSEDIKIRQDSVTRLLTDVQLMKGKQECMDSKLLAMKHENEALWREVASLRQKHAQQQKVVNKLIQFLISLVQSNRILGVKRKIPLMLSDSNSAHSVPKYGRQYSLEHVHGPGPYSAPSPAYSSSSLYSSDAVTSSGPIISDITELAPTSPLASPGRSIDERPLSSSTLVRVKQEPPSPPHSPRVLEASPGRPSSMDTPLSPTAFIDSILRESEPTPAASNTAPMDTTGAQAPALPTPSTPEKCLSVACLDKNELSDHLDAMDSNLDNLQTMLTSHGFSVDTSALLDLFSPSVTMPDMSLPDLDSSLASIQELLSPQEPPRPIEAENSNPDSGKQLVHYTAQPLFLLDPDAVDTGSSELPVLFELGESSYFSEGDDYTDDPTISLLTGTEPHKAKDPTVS

[13] = molecular target: Luciferin 4-monooxygenase (Photinus pyralis, UniProt P08659); experiment: inhibition of purified Photinus pyralis luciferase – biochemical, luminescence, dose response (AID 1891)
Sequence of Luciferin 4-monooxygenase (P08659 whole entry): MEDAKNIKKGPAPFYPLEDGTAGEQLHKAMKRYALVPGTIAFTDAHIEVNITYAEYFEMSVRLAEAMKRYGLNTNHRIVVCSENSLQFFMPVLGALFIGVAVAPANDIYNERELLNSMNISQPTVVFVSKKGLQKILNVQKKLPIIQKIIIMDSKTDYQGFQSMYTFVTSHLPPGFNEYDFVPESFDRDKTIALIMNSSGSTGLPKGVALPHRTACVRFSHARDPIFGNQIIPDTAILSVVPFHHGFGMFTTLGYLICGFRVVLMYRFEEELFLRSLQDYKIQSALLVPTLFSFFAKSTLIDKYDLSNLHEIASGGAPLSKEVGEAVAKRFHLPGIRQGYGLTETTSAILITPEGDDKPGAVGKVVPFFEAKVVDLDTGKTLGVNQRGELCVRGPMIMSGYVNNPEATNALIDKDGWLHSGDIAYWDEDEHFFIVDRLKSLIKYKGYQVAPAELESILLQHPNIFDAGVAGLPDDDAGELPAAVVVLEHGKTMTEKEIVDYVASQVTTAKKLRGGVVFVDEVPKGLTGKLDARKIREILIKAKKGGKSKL

[14] = Luminescence Cell-Based Dose Confirmation HTS to Identify Inhibitors of Platelet Dense Granule Release. [Related pubchem assays: 1663 (Primary HTS), 1678 (Summary of Project)]; format: functional
[15] = tested on: HEK293; experiment: EBV LMP1 TES2 canonical NF-kB signalling blockers – cell-based, HEK293, luciferase, cherry-pick, dose response (AID 588343); format: functional; settings: Homo sapiens

In the case of `Cc1ccn(-c2cccc(-n3ccc(C)n3)n2)n1`, the AC50 [1] is reported as 46.9 µM (active) and the EC50 [2] is reported as > 67.6 µM (inactive).
In the case of `COc1ccc(S(=O)(=O)NNc2nc(C)cc(C)n2)cc1Br`, the EC50 [3] is reported as > 40 µM (inactive) and the IC50 [4] is reported as > 40 µM (not active).
With `CCOc1cccc(-c2nc3cc(C)ccc3o2)c1` the IC50 [5] was 18.2 µM (active), the IC50 [6] was 7.7 µM (active) and the IC50 [7] was 39.6 µM (active). For the same compound, the IC50 [8] was 15.6 µM (active).
In the case of `Cc1nc(-c2ccccc2)sc1C(=O)/C=C/c1ccccc1`, the CC50 [9] is reported as 36.9 µM (active) and the IC50 [10] is reported as 3.43 µM (active).
For `Cc1ccc(S(=O)(=O)NC(=NNC(=O)c2cccc(Cl)c2)c2ccccc2)cc1`, the IC50 [5] was 10.3 µM (active), the IC50 [6] was 5.83 µM (active) and the IC50 [7] was 19.4 µM (active). The IC50 [8] was 13.6 µM (active).
In the case of `CCC1(C)N=C(c2ccc3c(c2)OCO3)CC(c2ccccc2O)N1` (stereo unspecified), the IC50 [10] is reported as 1.87 µM (active).
In the case of `Cc1ccc(C(C[N+](=O)[O-])c2c(N)n(C)c(=O)n(C)c2=O)cc1` (stereo unspecified), the AC50 [11] is reported as 2.5 µM (active).
With `COc1cc2c(cc1OC)-c1cc(Nc3ccc4c(c3)OCCO4)nc(=O)n1CC2` the EC50 [12] was 2.04 µM (active), the EC50 [13] was 17.4 µM (active) and the EC50 [14] was 4.63 µM (active). The AC50 [15] was 27.3 µM (active).
For `Cc1ccnc(NC(=O)c2ccc(S(=O)(=O)N3CCC(C)CC3)cc2)c1`, the AC50 [1] was 128 µM (active).
With `CCOC(=O)CN1C(=O)S/C(=C\c2ccc(-c3cccc(C(=O)O)c3C)o2)C1=O` the IC50 [5] was 45.4 µM (active), the IC50 [6] was 6.97 µM (active) and the IC50 [7] was 16.2 µM (active). For the same compound, the IC50 [8] was 18 µM (active).
In the case of `COc1ccccc1C=CC(=O)C=Cc1ccccc1OC`, the IC50 [10] is reported as 6.46 µM (active).
